Test results reported in article PMC9181987, “Disclosing the Potential of Fluorinated Ionic Liquids as Interferon-Alpha 2b Delivery Systems” (Nanomaterials, 2022).

Tests used:
IFN-α 2b [1] = molecular target: T1, IFN-α 2b (Homo sapiens, UniProt P01563); test: Intrinsic fluorescence spectroscopy of IFN-α 2b with FILs (λmax shift, Stern–Volmer quenching); type: binding
T1 construct: purchased Sigma-Aldrich SRP4595; host or cells: E. coli
Description: The concentrations were chosen to cover the range where the different aggregates of the FILs are formed. Samples, equilibrated for 30 min at room temperature, and 400 μL of each solution were transferred to a quartz cuvette of 10 mm pathlength and excited at 280 nm, collecting the fluorescence intensity in a wavelength range of 300 to 450 nm. The width of the excitation and emission slit was set to 5 nm for both cases. The spectra of FIL solutions (blanks) were discounted to the spectra of FIL + protein samples to avoid any possible effect of FIL concentration increment in the fluorescence intensity.
A very well-known equation, the Stern–Volmer, was used to characterize the quenching occurring in this region. This equation characterizes the collisional quenching that can occur when the excited state of the fluorophore is disabled due to contact with another molecule (quencher), without chemical alteration. Therefore, the collisional quenching is described by:(11) F0/F=1+K[Q]=1+kqτ0[Q] where F0 and F are the fluorescence intensities of the fluorophore in the absence and presence of the quencher, respectively, K is the Stern–Volmer quenching constant, kq is the biomolecular quenching constant, τ0 is the unquenched lifetime, and [Q] is the quencher concentration. […] This value gives information on the sensitivity of the fluorophore to a quencher.

IFN-α 2b [2] = molecular target: T1, IFN-α 2b; test: Microscale thermophoresis (MST) binding affinity of FILs with labelled IFN-α 2b; settings: for Kd: labelled IFN-α 2b 2.7 μM, 5 mM NaH2PO4 pH 7.4, 25 °C, ± = Kd confidence of the fitting
Description: Several dilution series of 16 samples of 20 μL were prepared in triplicate for each studied system. All the solutions were prepared in the buffer of the protein, 5 mM of NaH2PO4 (pH = 7.4), and PCR tubes. In the first tube (1 out 16) 20 μL of FIL stock solution was added at twofold the maximum concentration defined for each assay. In the remaining 15 tubes, 10 μL of buffer was added, followed by the series dilution of the FIL. […] The selected concentrations cover the range where the distinct CACs are formed in each FIL. The excitation power was determined by a pre-test and set to 20% whereas the MST power was set to medium (standard). The assays were executed in standard capillaries and triplicates. The results were processed using the MO.Affinity Analysis v2.3 software (NanoTemper Technologies, Munich, Germany).
In the process of labelling, commonly, one amine per protein is labelled, statistically distributing the position of the dye. […] As explained in the experimental section, in each run of MST, a maximum concentration is chosen and is consecutively diluted in 16 capillaries.

[3] = Dynamic light scattering: aggregate size and polydispersity index; type: physicochemical; settings: 150 mM NaH2PO4, 25°C
Description: These concentrations were chosen to comprise two different aggregates of each FIL, above the 1st CAC and the 3rd CAC. […] Therefore, 20 μL was transferred into a quartz cell of 10 mm pathlength and measured at 25 °C.
Moreover, the polydispersity index (PdI) was obtained by DLS which determines the heterogeneity of the sample in the function of the size.

[4] = set-up: method as in doi:10.5772/INTECHOPEN.96336, doi:10.1016/j.molliq.2022.119285, PMID 25580898; settings: cited from earlier work
[5] = cited from earlier work

T1 sequence (P01563 24-188): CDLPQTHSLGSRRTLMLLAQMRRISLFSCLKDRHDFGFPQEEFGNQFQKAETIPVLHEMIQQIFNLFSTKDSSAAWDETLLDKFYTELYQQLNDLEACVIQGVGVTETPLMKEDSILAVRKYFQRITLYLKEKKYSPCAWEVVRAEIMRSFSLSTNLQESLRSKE

C[N+](C)(C)CCO.O=S(=O)([O-])C(F)(F)C(F)(F)C(F)(F)C(F)(F)F [[N1112(OH)][C4F9SO3], (2-Hydroxyethyl)trimethylammonium perfluorobutanesulfonate]
Stern–Volmer quenching constant K (IFN-α 2b [1]; IFN-α 2b 20 μg/mL, region ~14 mM to ~110 mM FIL, 5 mM NaH2PO4 pH 7.4, excitation 280 nm): 0.00195 mM⁻¹
red shift of λmax (IFN-α 2b [1]; concentration close to the 3rd CAC, IFN-α 2b 20 μg/mL): 3 nm
red shift of λmax (IFN-α 2b [1]; concentrations above 384 mM, IFN-α 2b 20 μg/mL): up to 8 nm
biomolecular quenching constant kq (IFN-α 2b [1]; from K and τ0 of IFN-α 2b): 6.61e+08 M⁻¹ s⁻¹
binding to IFN-α 2b (MST) (IFN-α 2b [2]; four runs, maximum concentrations 15, 35, 70, 375 mM): binding only occurs for the runs where concentrations were above the 2nd and 3rd CAC
Polydispersity index (PdI) ([3]; 29.8 mM FIL): 0.784
Polydispersity index (PdI) ([3]; 248.0 mM FIL): 0.543
miscibility in water [4]: full miscibility in water
toxicity [5]: negligible toxicity

O=S(=O)(O)C(F)(F)C(F)(F)C(F)(F)C(F)(F)F [[N1112(OH)][C4F9SO3], (2-Hydroxyethyl)trimethylammonium perfluorobutanesulfonate]
Kd (IFN-α 2b [2]; assay 70 − 2.1 × 10^−3 mM FIL): 0.000597 mM
Kd (IFN-α 2b [2]; assay 375 − 1.1 × 10^−2 mM FIL): 54.7 ± 36.9 mM
